In assay [1] the target is T1, RAC-alpha serine/threonine-protein kinase (Homo sapiens, UniProt P31749). The assay can be described thus: Inhibition of Akt1 at 50 uM.
Assay [2] deals with Vascular endothelial growth factor receptor 3 (Homo sapiens, UniProt P35916). The assay can be described thus: Inhibition of FLt4 at 1.0 mM ATP.
A further assay deals with Casein kinase II (Homo sapiens, UniProt P19784+P67870+P68400). As to the kind of experiment: Inhibition of CK2 at 10 uM ATP. The class given is protein-complex assay.
For assay [3], the target named is Cyclin-dependent kinase 1 (Homo sapiens, UniProt P06493). The assay can be described thus: Inhibition of CDK1 at 10 uM ATP.
Assay [4] addresses T1, RAC-alpha serine/threonine-protein kinase. As to the kind of experiment: Activity against GSK3 phosphorylation in FL5.12-Akt1 cells. The class given is functional, cell-based.
In assay [5] the target is Protein kinase C gamma type (Homo sapiens, UniProt P05129). As to the kind of experiment: Inhibition of PKCgamma at 10 uM ATP.
The target in assay [6] is Protein kinase C delta type (Homo sapiens, UniProt Q05655). The assay can be described thus: Inhibition of PKCdelta at 10 uM ATP.
Assay [7] addresses RAC-gamma serine/threonine-protein kinase (Homo sapiens, UniProt Q9Y243). As to the kind of experiment: Inhibition of Akt3 at 10 uM ATP.
Assay [8] deals with Proto-oncogene tyrosine-protein kinase Src (Homo sapiens, UniProt P12931). As to the kind of experiment: Inhibition of SRC kinase at 1.0 mM ATP.
For assay [9], the target named is MAP kinase-activated protein kinase 2 (Homo sapiens, UniProt P49137). The assay can be described thus: Inhibition of MAPKAP2 at 10 uM ATP.
Assay [10] concerns the target T2, Serine/threonine-protein kinase Chk1 (Homo sapiens, UniProt O14757).
T2 sequence (O14757 whole entry): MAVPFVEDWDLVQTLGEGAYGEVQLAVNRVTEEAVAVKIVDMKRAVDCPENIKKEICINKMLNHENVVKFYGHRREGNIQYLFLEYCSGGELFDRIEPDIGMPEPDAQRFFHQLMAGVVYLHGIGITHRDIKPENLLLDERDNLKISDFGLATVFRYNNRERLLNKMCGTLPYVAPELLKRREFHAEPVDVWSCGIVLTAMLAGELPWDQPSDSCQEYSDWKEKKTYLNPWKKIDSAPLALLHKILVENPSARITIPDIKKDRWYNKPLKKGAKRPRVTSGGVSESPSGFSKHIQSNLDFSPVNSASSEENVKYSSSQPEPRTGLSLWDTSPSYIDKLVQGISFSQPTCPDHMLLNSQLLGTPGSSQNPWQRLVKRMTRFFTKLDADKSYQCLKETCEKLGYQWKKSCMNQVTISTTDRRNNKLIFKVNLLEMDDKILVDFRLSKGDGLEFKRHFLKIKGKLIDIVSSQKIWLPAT
As to the kind of experiment: Inhibition of Chk1 at 10 uM ATP.

Assay [11] has as its target Mitogen-activated protein kinase 1 (Homo sapiens, UniProt P28482). As to the kind of experiment: Inhibition of ERK2 at 10 uM ATP.

T1 sequence (P31749 whole entry): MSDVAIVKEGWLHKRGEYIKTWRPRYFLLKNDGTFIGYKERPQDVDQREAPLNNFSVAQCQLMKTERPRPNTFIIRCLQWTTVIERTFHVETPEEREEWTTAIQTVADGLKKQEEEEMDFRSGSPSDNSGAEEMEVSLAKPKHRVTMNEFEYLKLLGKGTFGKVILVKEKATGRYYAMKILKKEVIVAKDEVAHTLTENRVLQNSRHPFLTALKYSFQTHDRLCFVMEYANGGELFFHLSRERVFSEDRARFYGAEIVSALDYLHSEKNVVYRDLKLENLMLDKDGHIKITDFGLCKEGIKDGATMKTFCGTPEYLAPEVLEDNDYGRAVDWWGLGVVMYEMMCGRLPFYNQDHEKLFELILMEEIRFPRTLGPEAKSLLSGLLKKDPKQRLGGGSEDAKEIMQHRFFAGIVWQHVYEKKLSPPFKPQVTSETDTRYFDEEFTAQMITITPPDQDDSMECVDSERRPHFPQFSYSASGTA
Sequence of Vascular endothelial growth factor receptor 3 (P35916 whole entry): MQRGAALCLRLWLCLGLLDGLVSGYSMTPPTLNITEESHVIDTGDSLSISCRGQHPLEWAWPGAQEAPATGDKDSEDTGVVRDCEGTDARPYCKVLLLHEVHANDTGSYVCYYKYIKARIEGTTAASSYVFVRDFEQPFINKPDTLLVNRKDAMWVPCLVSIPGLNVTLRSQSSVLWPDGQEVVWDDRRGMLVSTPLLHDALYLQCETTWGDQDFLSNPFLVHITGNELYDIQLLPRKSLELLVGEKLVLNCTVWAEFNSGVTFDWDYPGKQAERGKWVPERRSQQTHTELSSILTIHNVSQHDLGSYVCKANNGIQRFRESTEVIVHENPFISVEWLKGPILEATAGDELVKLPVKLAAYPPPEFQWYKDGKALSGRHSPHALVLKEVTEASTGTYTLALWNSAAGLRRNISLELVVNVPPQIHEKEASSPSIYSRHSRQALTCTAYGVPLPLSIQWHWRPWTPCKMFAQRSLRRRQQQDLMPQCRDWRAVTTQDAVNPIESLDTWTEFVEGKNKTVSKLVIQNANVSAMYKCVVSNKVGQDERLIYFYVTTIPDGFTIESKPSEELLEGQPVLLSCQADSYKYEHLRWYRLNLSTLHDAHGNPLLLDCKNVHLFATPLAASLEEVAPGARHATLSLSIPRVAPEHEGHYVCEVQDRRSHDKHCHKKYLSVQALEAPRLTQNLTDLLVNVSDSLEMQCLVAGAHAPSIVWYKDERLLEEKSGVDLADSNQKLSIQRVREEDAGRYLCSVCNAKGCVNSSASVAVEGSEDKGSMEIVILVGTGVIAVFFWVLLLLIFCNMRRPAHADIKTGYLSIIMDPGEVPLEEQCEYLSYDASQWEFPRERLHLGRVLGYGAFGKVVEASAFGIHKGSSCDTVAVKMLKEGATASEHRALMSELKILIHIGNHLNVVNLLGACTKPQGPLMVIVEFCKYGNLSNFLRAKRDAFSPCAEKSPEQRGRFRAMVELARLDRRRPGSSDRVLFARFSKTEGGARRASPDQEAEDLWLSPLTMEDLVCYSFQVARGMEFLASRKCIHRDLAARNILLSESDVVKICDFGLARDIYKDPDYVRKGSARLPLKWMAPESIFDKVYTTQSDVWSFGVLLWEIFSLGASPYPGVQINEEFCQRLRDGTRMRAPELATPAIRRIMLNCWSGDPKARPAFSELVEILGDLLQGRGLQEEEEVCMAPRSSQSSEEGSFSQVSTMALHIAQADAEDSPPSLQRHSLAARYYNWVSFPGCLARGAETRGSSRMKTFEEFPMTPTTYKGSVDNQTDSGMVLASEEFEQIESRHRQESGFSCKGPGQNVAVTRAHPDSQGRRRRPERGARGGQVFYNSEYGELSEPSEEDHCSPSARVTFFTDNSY
Sequence of Proto-oncogene tyrosine-protein kinase Src (P12931 2-536 limits assumed): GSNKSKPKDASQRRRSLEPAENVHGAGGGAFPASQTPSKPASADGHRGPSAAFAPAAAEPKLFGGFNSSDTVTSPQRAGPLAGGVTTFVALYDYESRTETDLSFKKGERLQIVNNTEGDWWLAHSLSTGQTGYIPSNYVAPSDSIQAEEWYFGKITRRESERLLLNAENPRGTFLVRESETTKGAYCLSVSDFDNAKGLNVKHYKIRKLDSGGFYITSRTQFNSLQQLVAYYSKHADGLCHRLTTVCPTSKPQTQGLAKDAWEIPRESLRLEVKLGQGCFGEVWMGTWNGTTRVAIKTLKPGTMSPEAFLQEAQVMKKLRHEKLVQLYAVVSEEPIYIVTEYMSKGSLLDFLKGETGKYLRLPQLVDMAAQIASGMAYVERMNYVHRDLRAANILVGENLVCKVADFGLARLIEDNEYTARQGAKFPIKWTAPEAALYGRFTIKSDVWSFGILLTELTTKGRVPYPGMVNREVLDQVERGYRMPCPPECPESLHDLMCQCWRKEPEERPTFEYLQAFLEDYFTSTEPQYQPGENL
Sequence of Mitogen-activated protein kinase 1 (P28482 whole entry): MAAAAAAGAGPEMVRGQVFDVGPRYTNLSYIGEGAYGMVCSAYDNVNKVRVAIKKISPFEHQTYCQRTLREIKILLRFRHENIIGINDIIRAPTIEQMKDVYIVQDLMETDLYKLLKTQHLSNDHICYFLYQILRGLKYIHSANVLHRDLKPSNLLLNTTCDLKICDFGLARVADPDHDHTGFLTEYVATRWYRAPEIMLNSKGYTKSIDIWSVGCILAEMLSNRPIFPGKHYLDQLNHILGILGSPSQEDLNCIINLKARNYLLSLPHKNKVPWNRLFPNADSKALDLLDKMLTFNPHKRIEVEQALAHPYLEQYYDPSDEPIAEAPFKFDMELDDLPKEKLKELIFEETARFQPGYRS
Sequence of Protein kinase C delta type (Q05655 whole entry): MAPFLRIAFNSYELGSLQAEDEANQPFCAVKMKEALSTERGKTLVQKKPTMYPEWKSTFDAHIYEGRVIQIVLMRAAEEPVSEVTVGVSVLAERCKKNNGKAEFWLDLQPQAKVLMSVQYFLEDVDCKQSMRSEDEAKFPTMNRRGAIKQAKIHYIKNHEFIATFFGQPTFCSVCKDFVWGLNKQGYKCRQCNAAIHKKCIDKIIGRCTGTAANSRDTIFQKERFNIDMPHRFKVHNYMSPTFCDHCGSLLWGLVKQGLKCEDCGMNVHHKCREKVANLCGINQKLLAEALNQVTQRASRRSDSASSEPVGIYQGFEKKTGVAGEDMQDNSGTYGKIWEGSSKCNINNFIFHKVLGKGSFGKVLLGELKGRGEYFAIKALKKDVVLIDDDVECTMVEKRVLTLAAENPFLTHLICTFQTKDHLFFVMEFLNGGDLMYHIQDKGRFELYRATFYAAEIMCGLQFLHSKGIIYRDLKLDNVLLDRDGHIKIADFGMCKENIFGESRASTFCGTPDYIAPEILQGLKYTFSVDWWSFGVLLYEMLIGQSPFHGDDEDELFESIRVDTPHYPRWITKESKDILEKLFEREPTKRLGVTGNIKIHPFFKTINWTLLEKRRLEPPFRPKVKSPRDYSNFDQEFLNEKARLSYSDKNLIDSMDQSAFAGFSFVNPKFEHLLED
Sequence of Cyclin-dependent kinase 1 (P06493 whole entry): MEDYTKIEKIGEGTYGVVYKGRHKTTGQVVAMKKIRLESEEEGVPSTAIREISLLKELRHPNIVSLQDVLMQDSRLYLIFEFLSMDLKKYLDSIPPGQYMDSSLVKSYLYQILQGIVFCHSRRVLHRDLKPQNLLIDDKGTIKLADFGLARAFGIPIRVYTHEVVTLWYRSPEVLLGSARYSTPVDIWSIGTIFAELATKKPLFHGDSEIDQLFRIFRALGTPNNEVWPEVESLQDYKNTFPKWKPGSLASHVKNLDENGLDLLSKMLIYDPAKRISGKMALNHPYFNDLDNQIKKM
Sequence of RAC-gamma serine/threonine-protein kinase (Q9Y243 whole entry): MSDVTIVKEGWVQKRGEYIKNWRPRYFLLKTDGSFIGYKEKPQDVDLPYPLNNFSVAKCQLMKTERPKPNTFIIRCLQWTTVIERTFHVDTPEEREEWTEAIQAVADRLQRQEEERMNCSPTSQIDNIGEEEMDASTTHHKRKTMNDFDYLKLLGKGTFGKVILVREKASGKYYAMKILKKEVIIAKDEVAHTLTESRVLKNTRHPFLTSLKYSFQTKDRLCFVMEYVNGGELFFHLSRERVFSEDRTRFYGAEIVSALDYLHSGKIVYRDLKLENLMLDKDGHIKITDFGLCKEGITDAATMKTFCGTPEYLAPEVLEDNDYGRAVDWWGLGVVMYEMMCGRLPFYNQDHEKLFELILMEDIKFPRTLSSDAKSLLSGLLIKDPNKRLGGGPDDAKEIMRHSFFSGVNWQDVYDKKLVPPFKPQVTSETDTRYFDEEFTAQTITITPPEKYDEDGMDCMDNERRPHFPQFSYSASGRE

For `N[C@H](COc1cncc(-c2ccccc2-c2ccncc2)c1)Cc1c[nH]c2ccccc12`, the inhibition in [1] came to 10%. In the case of `N[C@H](COc1cncc(-c2ccc(S(N)(=O)=O)cc2)c1)Cc1c[nH]c2ccccc12`, in assay [1], the inhibition is 12%.

With `N[C@H](COc1cncc(NC(=O)c2cccnc2)c1)Cc1ccccc1`, in assay [1], the inhibition amounted to 26%. `N[C@H](COc1cncc(NCc2ccncc2)c1)Cc1ccccc1`: the inhibition in assay [1] worked out at 26%. `N=C(N)c1ccc(-c2cncc(OC[C@@H](N)Cc3c[nH]c4ccccc34)c2)cc1` had an inhibition in assay [1] of 41%. Still for that read-out and setting: with `N[C@H](COc1cncc(-c2cccc(S(N)(=O)=O)c2)c1)Cc1c[nH]c2ccccc12` the figure was 0%; with `N[C@H](COc1cncc(-c2ccc([N+](=O)[O-])cc2)c1)Cc1c[nH]c2ccccc12`, 13%. Still for that read-out and setting: as for `CC(=O)NCc1ccc(-c2cncc(OC[C@@H](N)Cc3c[nH]c4ccccc34)c2)cc1`, the figure is 3%; as for `N=C(NO)c1ccc(-c2cncc(OC[C@@H](N)Cc3c[nH]c4ccccc34)c2)cc1`, 48%. As to `N[C@H](COc1cncc(-c2ccc3cnccc3c2)c1)Cc1c[nH]c2ccccc12`, the half-inhibitory concentration (IC50) in [2] was more than 50000 nM; on Casein kinase II, 11800 nM; in assay [3], 100 nM; in assay [5], 270 nM; in assay [6], 6100 nM; in assay [7], 35 nM. Moreover, the IC50 is more than 50000 nM in assay [8], more than 50000 nM in assay [9], 4200 nM in assay [10] and 910 nM in [11]. The molecule also registered a concentration giving a half-maximal response (EC50) in assay [4] of 1500 nM. In assay [1], `N[C@H](COc1cncc(NCc2cccnc2)c1)Cc1ccccc1` registered an inhibition of 41%.

As a reminder, the inhibition is the share of the control response that was lost under treatment. A word on the IC50: it is the concentration that inhibits the measured activity by half. A low value points to higher potency. One may read the EC50 as the concentration giving half of the maximal effect. Lower therefore signals an effect from little substance.

Values taken from ChEMBL document CHEMBL1146102, “Synthesis and structure-activity relationship of 3,4'-bispyridinylethylenes: discovery of a potent 3-isoquinolinylpyridine inhibitor of protein kinase B (PKB/Akt) for the treatment of cancer” (Bioorg Med Chem Lett, 2006).
